Experiment [1] relates to startle reflex and its prepulse inhibition in rats. Description: Acoustic startle reactivity and prepulse inhibition (PPI) in rats. The experiment is classed as in vivo. The following applies: compound given 20 min before measurement, vs vehicle, FIG. 1. The procedure: (§1) In order to study the effect of alpha2-antagonists on startle reflex and its prepulse-inhibition, groups of rats (n=10/group) were pre-treated with the alpha2C-antagonist or vehicle 20 min before measurement of the acoustic startle reactivity and PPI in a test system designed for startle studies (SR-LAB, San Diego Instruments, CA, USA). In a subsequent experiment the effects of the alpha2-adrenoceptor subtype selective alpha2C-antagonist and or the subtype non-selective antagonist atipamezole (Haapalinna, A. et al., Naunyn-Schmiedeberg's Arch. Pharmacol. 356 (1997) 570-582) on PCP-induced PPI-disruption was studied. The antagonists were given 20 min, and PCP or vehicle 10 min before start of the startle measurements. The method otherwise corresponds to the procedure described in Sallinen, J. et al., J. Neurosci. 18 (1998) 3035-42.

Experiment [2] relates to startle reflex and its prepulse inhibition in rats pretreated with the psychostimulant phencyclidine (PCP). Description: PCP-induced PPI disruption, startle reflex and prepulse inhibition in rats pretreated with phencyclidine. The class given is in vivo. The following applies: FIG. 2; for effect on PCP-disrupted prepulse inhibition (PPI): antagonist 20 min and PCP 10 min before measurement, vs vehicle+PCP. The procedure: as §1

Entries after “also recorded” stand apart in the source; their conditions may differ.

As for `CN1CCN(c2ccc(Nc3c4ccccc4nc4ccccc34)cc2)CC1` [JP-1302, acridin-9-yl-[4-(4-methylpiperazin-1-yl)-phenyl]amine], in experiment [1], the “effect on prepulse inhibition (PPI, sensorimotor gating)” value is “enhanced sensorimotor gating (prepulse inhibition %); also recorded: increased PPI dose-dependently and effectively”; the “effect on startle reflex (startle reactivity to intense pulses without prepulses)” value was “without significantly affecting the startle reactivity; also recorded: did not affect the startle reflex per se”. Besides, in experiment [2], the “effect on PCP-disrupted prepulse inhibition (PPI)” value was “effectively counteracted; also recorded: especially clearly seen in the presence of PCP”.
For `c1ccc(C2(N3CCCCC3)CCCCC2)cc1` [PCP, phencyclidine], the “effect of PCP on prepulse inhibition (PPI)” value in experiment [2] (PCP given 10 min before measurement) was “clearly disrupted the PPI”.
As for `CCC1(c2cnc[nH]2)Cc2ccccc2C1` [atipamezole], the “effect on startle reactivity per se” value in experiment [2] (PCP experiment) is given as “increased significantly the startle reactivity per se”. Further, in experiment [2], the “effect on PCP-disrupted prepulse inhibition (PPI)” value was “had no effect on the PPI phenomenon”.
